Laboratory results as given in US7671057B2, “Therapeutic agent for type II diabetes comprising protease-inhibiting compound” (Ono Pharmaceutical Co., Ltd., priority 2004, dated 2010).
Marks after values point to notes of the source that are not given here.

How the values were obtained:
Format in all cases: in vivo, mouse
[1] = tested on: KK-A^y/Ta Jcl mice; assay: Glucose loading test after repeated administration for 14 days (Example 1)
Procedure: (§1) As from Day 14 afterwards, the animals after being fasted for 18 hours or more were loaded orally with a glucose solution (2 g/kg, 10 mL/kg), whereby the blood-sugar levels were measured before, and 120 min. after, the said glucose loading. Each of the compounds was given orally to the animals 3 hours prior to the glucose loading, and the whole blood was drawn from each of the animals under anesthesia. Each of the said blood samples was centrifuged to yield a blood plasma, and the resultant blood plasmas were all preserved under freezing in a ultra-low-temperature freezer for subsequent use in the below-described measurements.
(§2) The blood-sugar level, total cholesterol level (hereinafter referred to briefly as “TC level”) and triglyceride level (hereinafter referred to briefly as “TG level”) were detected individually in accordance with the hexokinase/G-6-PDH method, enzyme method and GPO/HDAOS method, and measured with use of Biochemical Auto-Analyzer (Model AU 400, manufactured by Olympus Co. of Japan). The plasma insulin level (hereinafter referred to briefly as “IRI level”) and the plasma glucagon level (hereinafter referred to briefly as “IRG level”) were detected individually with the ELISA method (Lebisinsulin Mouse Insulin Kit, produced by K.K. Shibayagi of Japan) and the ELISA method (YK090 Glucagon EIA Kit, produced by K.K. Yanaihara Kenkyuu-sho of Japan), followed by measurement with use of a plate reader (Immuno Mini NJ-2300, Nalge Nunc International K.K. of Japan).
(§3) The blood-sugar, TC, TG, IRI and IRG levels and the body weight were expressed as a mean value±standard deviation as calculated for each group of animals. With reference to the significance test between the group treated through administration of the medium and each group treated through administration of the compound, the F test was effected to analyze the data and then, the Student's t-test and Aspin-Welch's t-test were used in cases where the variance between the two groups was determined to be equal and unequal, respectively. Referring to the significance level, less than 5% (p<0.05) was considered significant, and the significance level was expressed as divided into the two events of less than 1% (**: p<0.01) and less than 5% (*: p<0.05).

[2] = tested on: KK-A^y/Ta Jcl mice; assay: Plasma TC, TG, blood-sugar, IRI and IRG levels 3 hours subsequent to the glucose-loading test (Example 1); conditions: 3 hours subsequent to glucose-loading test
Procedure: as §1, §2, §3

[3] = Body weight after repeated administration for 14 days (Example 1); conditions: after repeated administration for 14 consecutive days
Procedure: Following the above-described single administration, the repeated, once-a-day forced oral administration of each compound was performed at the same daily dose for the total period of 14 consecutive days. […] The blood-sugar, TC, TG, IRI and IRG levels and the body weight were expressed as a mean value±standard deviation as calculated for each group of animals. With reference to the significance test between the group treated through administration of the medium and each group treated through administration of the compound, the F test was effected to analyze the data and then, the Student's t-test and Aspin-Welch's t-test were used in cases where the variance between the two groups was determined to be equal and unequal, respectively.

[4] = tested on: KK-A^y/Ta Jcl mice; assay: Blood-sugar level after single and repeated oral administration (Example 1)
Procedure: On the day of initiation of administration (Day 1 of Administration), the obese/spontaneously type II diabetic mice; KK-A^y/Ta Jcl mice (male, 6-weeks aged, n=8) were treated through individual oral administration of the Test Compound 1 (ethyl N-allyl-N—[(E)-2-methyl-3-[4-(4-amidinophenoxycarbonyl)-phenyl]propenoyl]aminoacetate/methanesulfonate) of the present invention and the Control Compound 1 (5-{4-[2-(5-ethylpyridine-2-yl)ethoxy]benzyl}-1,3-thiazolidine-2,4-dione; pioglitazone) at the daily dose of 30 mg/kg, or the control medium (0.5% CMC), and blood was drawn from each animal through the orbital venous plexus 6 hours after administration. The blood-sugar levels were measured in accordance with the enzyme electrode method by use of Antosense II (manufactured by Daikin Kogyo KK of Japan). The said test was carried out while the animals were allowed free access to food and water.
Following the above-described single administration, the repeated, once-a-day forced oral administration of each compound was performed at the same daily dose for the total period of 14 consecutive days. On Days 3 and 11, blood was drawn in the same manner as described above 6 hours after administration of each compound, followed by measurement of the blood-sugar level.
as §3

[5] = repeated once-a-day oral 30 mg/kg, 6 hours after administration

## C=CCN(CC(=O)OCC)C(=O)/C(C)=C/c1ccc(C(=O)Oc2ccc(C(=N)N)cc2)cc1 [Test Compound 1, ethyl N-allyl-N—[(E)-2-methyl-3-[4-(4-amidinophenoxycarbonyl)-phenyl]propenoyl]aminoacetate/methanesulfonate]
[1]; after 14 days 30 mg/kg p.o., fasted, compound 3 hours prior to loading
  Blood-sugar level before glucose loading: 155.0 ± 5.2 mg/dL
[1]; after 14 days 30 mg/kg p.o., glucose 2 g/kg orally
  Blood-sugar level 120 Min. after glucose loading: 235.0 ± 5.9* mg/dL
[1]; after repeated administration for 14 consecutive days
  Blood-sugar lowering action in the glucose loading test vs medium control group (in words): significant blood-sugar lowering action
[1]; repeated forced oral administration, spontaneously diabetic mice
  Effect on impaired glucose tolerance (in words): ameliorated impaired glucose tolerance
[2]; after 14 days
  Effect on IRG level (in words): a decrease in the IRG level
  Effect on IRI level (in words): an increase in the IRI level
  Effect on TC level (in words): decreases
  Effect on TG level (in words): decreases
  Effect on blood-sugar level (in words): a decrease in the blood-sugar level
[2]; after 14 days 30 mg/kg p.o.
  Blood-sugar level: 251.0 ± 7.2 mg/dL
  IRG (plasma glucagon level): 411 ± 31.5 pg/mL
  IRI (plasma insulin level): 1.74 ± 0.17 ng/mL
  TC: 99.2 ± 3.6 mg/dL
  TG: 81.4 ± 7.1 mg/dL
[3]
  Effect on mouse body-weight vs control medium group (in words): did not show any changes in the mouse body-weight
[3]; 30 mg/kg p.o.
  Body weight: 29.3 ± 0.3 g
[4]; Day 1, before single oral administration of 30 mg/kg (baseline)
  Blood-sugar level before administration: 443.5 ± 19.6 mg/dL
[4]; repeated administration 30 mg/kg, Days 3 and 11
  Blood-sugar lowering action (in words): blood-sugar lowering action
[4]; [5]
  Blood-sugar level Day 3: 205.5 ± 7.0* mg/dL
  Blood-sugar level Day 11: 297.4 ± 18.4 mg/dL
[4]; single administration 30 mg/kg, 6 hours after administration
  Blood-sugar lowering action vs control medium group (in words): significant blood-sugar lowering action
[4]; single oral administration, 30 mg/kg
  Blood-sugar level 6 hrs. after administration: 263.5 ± 11.0* mg/dL
